The record followed here is ChEMBL document CHEMBL5518167, “Degradation of Polo-like Kinase 1 by the Novel Poly-Arginine N-Degron Pathway PROTAC Regulates Tumor Growth in Nonsmall Cell Lung Cancer” (J Med Chem, 2024).

In data set [1] the test system is PC-9. Nature of the data set: Cytotoxicity against human PC-9 cells incubated for 24 hrs by MTT assay. The settings on record: PC-9, 24 h. The data set is classed as functional, cell-based.
For data set [2], the system named is UBR/PLK1 (Homo sapiens). Nature of the data set: Protac activity at UBR/PLK1 in human A549 cells assessed as PLK1 degradation at 30 uM incubated for 24 hrs by immunoblotting analysis.
Data set [3] in a line: Drug uptake in human HeLa cells nucleus at 10 uM incubated for 24 hrs by PI staining based inverted confocal laser scanning fluorescence microscopic anlaysis. The data set is classed as ADME, subcellular.
Data set [4] concerns UBR/PLK1 (Homo sapiens). Nature of the data set: Protac activity at UBR/PLK1 in human A549 cells assessed as PLK1 degradation at 5 to 30 uM preincubated for 24 hrs followed by MG132 addition for 8 hrs by immunoblotting analysis. The settings on record: dose 5-30 µM, time 32.0 hrs.
Data set [5] relates to HeLa. Nature of the data set: Antitumor activity against human HeLa cells xenografted in iv dosed nude mouse assessed as reduction in tumor size. The data set is classed as functional, organism-based. The settings on record: dose 10.0 mg/kg.
Data set [6] concerns A549. Nature of the data set: Cytotoxicity against human A549 cells assessed as change in morphology at 25 uM incubated for 24 hrs by phase contrast microscopic assay. The data set is classed as functional, cell-based.
The subject of data set [7] is UBR/PLK1 (Homo sapiens). Nature of the data set: Protac activity at UBR/PLK1 in human HeLa cells assessed as PLK1 degradation at 4 uM preincubated for 24 hrs followed by compound washout and measured after 24 to 48 hrs by immunoblotting analysis.
Data set [8] deals with NCI-H1975. Nature of the data set: Induction of apoptosis in human NCI-H1975 cells at 25 uM incubated for 24 hrs by fluorescence microscopic analysis. The data set is classed as functional, cell-based.
Data set [9] deals with NCI-H1975. Nature of the data set: Induction of cell cycle arrest in human NCI-H1975 cells assessed as G2/M phase arrest at 10 uM incubated for 24 hrs by PI staining based flow cytometry analysis. The data set is classed as functional.
Data set [10] deals with NCI-H1975. Nature of the data set: Cytotoxicity against human NCI-H1975 cells incubated for 24 hrs by MTT assay. The data set is classed as functional, cell-based. The settings on record: NCI-H1975, 24 h.
Data set [11] concerns UBR/PLK1 (Homo sapiens). Nature of the data set: Protac activity at UBR/PLK1 in human NCI-H1975 cells assessed as PLK1 degradation incubated for 24 hrs by immunoblotting analysis. Particulars: dose 5-25 µM.
Assay in data set [12]: as above
Data set [13] has as its system UBR/PLK1 (Homo sapiens). Nature of the data set: Protac activity at UBR/PLK1 in human HeLa cells assessed as PLK1 degradation at 5 uM incubated for 24 hrs by immunoblotting analysis.
The subject of data set [14] is UBR/PLK1 (Homo sapiens). Nature of the data set: Protac activity at UBR/PLK1 in human A549 cells assessed as PLK1 degradation at 25 uM incubated for 2 to 24 hrs by immunoblotting analysis. The settings on record: time 2-24 hrs.
The test system of data set [15] is UBR/PLK1 (Homo sapiens). Nature of the data set: Protac activity at UBR/PLK1 in human A549 cells assessed as PLK1 degradation incubated for 24 hrs by immunoblotting analysis. The settings on record: dose 5-25 µM.
Assay in data set [16]: as above
Data set [17] deals with A549. Nature of the data set: Induction of cell cycle arrest in human A549 cells assessed as G2/M phase arrest at 10 uM incubated for 24 hrs by PI staining based flow cytometry analysis. The data set is classed as functional.
Data set [18] concerns UBR/PLK1 (Homo sapiens). Nature of the data set: Protac activity at UBR/PLK1 in human PC-9 cells assessed as PLK1 degradation at 25 uM incubated for 24 hrs by immunoblotting analysis.
Data set [19] in a line: In vivo induction of PLK1 degradation in nude mouse xenografted with human NCI-H1975 cells assessed as reduction in PLK1 protein expression at 10 mg/kg, iv administered for every 3 days by Western blotting analysis. The data set is classed as functional. Set-up: scale not given: the % may be the effect or the level left.
Data set [20] has as its system NCI-H1975. Nature of the data set: Antitumor activity against human NCI-H1975 cells harboring L858R/T790M double mutant xenografted in iv dosed nude mouse assessed as tumor growth inhibition administered for every 3 days in presence of 5 mg/kg osimertinib. The data set is classed as functional, organism-based.
In data set [21] the target is E3 ubiquitin-protein ligase UBR1 (Homo sapiens) (UniProt Q8IWV7). Nature of the data set: Binding affinity to UBR1 (unknown origin) expressed in HEK293T cells incubated for 3 hrs by pull-down assay. The data set is classed as cell-based.
Sequence of E3 ubiquitin-protein ligase UBR1 (Homo sapiens) (Q8IWV7 whole entry): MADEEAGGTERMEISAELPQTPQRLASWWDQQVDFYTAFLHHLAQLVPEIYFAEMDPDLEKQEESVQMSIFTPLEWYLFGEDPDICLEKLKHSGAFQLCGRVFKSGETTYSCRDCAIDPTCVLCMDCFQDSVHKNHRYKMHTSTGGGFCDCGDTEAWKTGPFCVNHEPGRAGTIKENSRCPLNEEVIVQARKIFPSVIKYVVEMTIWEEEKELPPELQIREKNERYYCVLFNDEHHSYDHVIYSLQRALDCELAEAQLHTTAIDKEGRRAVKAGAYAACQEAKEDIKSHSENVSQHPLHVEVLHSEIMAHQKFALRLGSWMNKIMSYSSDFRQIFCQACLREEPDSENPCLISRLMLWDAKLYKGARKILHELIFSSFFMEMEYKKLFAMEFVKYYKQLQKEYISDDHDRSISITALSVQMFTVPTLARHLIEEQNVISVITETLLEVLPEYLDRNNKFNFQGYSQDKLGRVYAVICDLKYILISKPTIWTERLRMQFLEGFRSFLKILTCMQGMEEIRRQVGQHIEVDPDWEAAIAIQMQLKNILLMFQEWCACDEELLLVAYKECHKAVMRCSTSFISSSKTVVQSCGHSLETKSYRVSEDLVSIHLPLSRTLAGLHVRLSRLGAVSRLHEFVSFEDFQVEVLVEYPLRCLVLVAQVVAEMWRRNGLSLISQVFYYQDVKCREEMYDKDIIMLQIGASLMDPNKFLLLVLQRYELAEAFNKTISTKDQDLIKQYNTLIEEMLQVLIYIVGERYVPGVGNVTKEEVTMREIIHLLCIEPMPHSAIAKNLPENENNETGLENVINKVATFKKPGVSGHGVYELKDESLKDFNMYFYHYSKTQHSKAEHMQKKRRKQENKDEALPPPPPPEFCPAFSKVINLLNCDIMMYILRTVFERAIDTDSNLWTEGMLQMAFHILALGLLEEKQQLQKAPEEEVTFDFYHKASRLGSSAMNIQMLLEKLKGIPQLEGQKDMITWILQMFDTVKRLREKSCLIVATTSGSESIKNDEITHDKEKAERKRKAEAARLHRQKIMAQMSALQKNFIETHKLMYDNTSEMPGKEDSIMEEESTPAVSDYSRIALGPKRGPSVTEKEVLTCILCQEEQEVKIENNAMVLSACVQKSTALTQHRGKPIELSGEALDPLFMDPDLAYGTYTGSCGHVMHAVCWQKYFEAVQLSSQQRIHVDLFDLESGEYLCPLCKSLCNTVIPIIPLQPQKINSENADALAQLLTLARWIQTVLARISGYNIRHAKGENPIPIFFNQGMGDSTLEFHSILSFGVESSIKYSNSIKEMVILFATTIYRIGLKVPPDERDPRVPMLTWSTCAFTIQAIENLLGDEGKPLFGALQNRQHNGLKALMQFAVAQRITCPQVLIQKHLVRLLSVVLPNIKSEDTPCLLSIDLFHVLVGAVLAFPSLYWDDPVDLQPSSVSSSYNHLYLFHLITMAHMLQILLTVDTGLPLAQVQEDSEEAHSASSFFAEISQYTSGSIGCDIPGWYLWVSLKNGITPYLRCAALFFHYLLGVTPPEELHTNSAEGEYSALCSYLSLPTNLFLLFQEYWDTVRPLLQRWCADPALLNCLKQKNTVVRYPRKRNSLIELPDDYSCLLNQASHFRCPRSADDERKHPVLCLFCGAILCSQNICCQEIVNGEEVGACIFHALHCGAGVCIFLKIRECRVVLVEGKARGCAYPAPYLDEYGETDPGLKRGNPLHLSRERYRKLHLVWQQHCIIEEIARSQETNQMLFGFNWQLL
Data set [22] has as its system UBR/PLK1 (Homo sapiens). Nature of the data set: Protac activity at UBR/PLK1 in human HeLa cells assessed as PLK1 degradation at 0.3 to 3 uM preincubated for 24 hrs followed by MG132 addition for 8 hrs by immunoblotting analysis. Particulars: dose 0.3-3 µM.
For data set [23], the system named is UBR/PLK1 (Homo sapiens). Nature of the data set: Protac activity at UBR/PLK1 in human PC-9 cells assessed as PLK1 degradation at 10 uM incubated for 2 to 24 hrs by immunoblotting analysis. Particulars: time 2-24 hrs.
Data set [24] deals with A549. Nature of the data set: Induction of cell cycle arrest in human A549 cells assessed as delay in S phase progression at 10 uM incubated for 24 hrs by PI staining based flow cytometry analysis. The data set is classed as functional.

Calls of active or inactive are those of the source. The calls are words filed in the database; no cut-off is given here. Where a SMILES comes first, the peptide text is derived from it. Bridges are numbered along the chain shown (N, C = ends). [ ]: non-standard residue; d: D form. His(π-(CH2)8Ph) = N[C@@H](Cc1cncn1CCCCCCCCc1ccccc1)C(=O)O; pT = C[C@@H](OP(=O)(O)O)[C@H](N)C(=O)O; Ahx = NCCCCCC(=O)O

Take `C[C@@H](OP(=O)(O)O)[C@@H]1NC(=O)[C@H](Cc2cncn2CCCCCCCCc2ccccc2)NC(=O)[C@@H](NC(=O)CCCCCNC(=O)[C@H](CCCNC(=N)N)NC(=O)[C@H](CCCNC(=N)N)NC(=O)[C@H](CCCNC(=N)N)NC(=O)[C@H](CCCNC(=N)N)NC(=O)[C@H](CCCNC(=N)N)NC(=O)[C@H](CCCNC(=N)N)NC(=O)[C@H](CCCNC(=N)N)NC(=O)[C@H](CCCNC(=N)N)NC(=O)[C@H](CCCNC(=N)N)NC(=O)[C@H](CCCNC(=N)N)NC(=O)[C@H](CCCNC(=N)N)NC(=O)[C@@H](N)CCCNC(=N)N)CCC(=O)NCCCC[C@@H](C(N)=O)NC1=O` (H-RRRRRRRRRRRR[Ahx]E[His(π-(CH2)8Ph)][pT]K-NH2; lactam 14-17): the concentration for half-maximal inhibition (IC50) in [1] was determined as 17.1 µM; in data set [10] it was 24.4 µM. The maximal effect (Emax) in data set [2] was above 60%; in data set [13], 80%. Moreover, the Drug uptake entry in data set [3] was “Active”. In addition, the outcome in [4] and in data set [22] was inactive. Moreover, the Activity entry in [5] was “Dose-Dependent Effect”; in [9], 11%; in data set [11] it was “Dose-Dependent Effect”; in data set [15] it was “Dose-Dependent Effect”; in [17], 10%; in [18], above 90%. Further, the Activity in [19] was above 60%; in data set [20], “Dose-Dependent Effect”. The result in [6], in data set [7], in [8], in [14], in [21] and in data set [23] was Active. Besides, the outcome in [24] was Active. For the same compound, the 50% degradation concentration (DC50) is 12 µM in data set [12] and 27 µM in [16].
